In one assay the test system is SUM159 tumour masses. Kind of assay: Ex vivo mammosphere forming assay on SUM159 tumour masses. Type of assay: cell-based, human.
The test system of assay [1] is SUM159 tumour cells derived from in vivo xenografts. The experiment in a line: Limiting dilution assay in recipient NSG mice. Also noted: species or system human.
The subject of another assay is 4T1-luc cells. The experiment in a line: Growth of 4T1-luc cells in the mammary fat pad of Balb-c mice. Type of assay: in vivo, mouse. The settings on record: 2DG once a day i.p. combined with 4 cycles of FMD.
Assay [2] relates to 4T1 tumour masses (CD44highCD24low subpopulation). Kind of assay: CD44CD24 flow cytometry of 4T1 tumour masses. Type of assay: in vivo, mouse. The settings on record: 2DG combined with FMD. On the procedure:
Cells were harvested and washed in PBS 1% BSA and pellets were resuspended in blocking buffer (PBS 10% BSA) and incubated for 30 min at 4° C. light protected. After a wash in PBS 1% BSA, cells were incubated with antibodies solution (200 μl/1×10^6 cells) for 45 min at 4° C. […] SUM159 samples were analysed by flow cytometry with Attune NxT flow cytometer and data were processed by Kaluza analysis software (Beckman coulter, version 2.0). 4T1 samples were analysed by flow cytometry with FACSCalibur (BD) and data were processed by FlowJo software.
On the technique in general: In flow cytometry, cells or beads pass a laser one at a time.

The subject of another assay is SUM159 xenografts. The experiment in a line: Growth of SUM159 xenografts in NOD scid gamma (NSG) mice. The settings on record: agent combined with FMD cycles, compared with FMD or drug alone.
The next assay deals with 4T1 cells. Kind of assay: In vitro sphere forming assay, 4T1 cells under CTR/STS. The assay is classed as cell-based, mouse. The settings on record: STS (0.5 g/l glucose, 1% FBS), 48 h; agent added (8-Br-cAMP; glucose 1 g/l).
Where [3] appears, read: tumour masses from mice treated with agent combined with FMD cycles.
Setting [4] is: tumour masses from mice treated with drug under AL diet.

This is an account of results in patent US20220313694A1, “REDUCED CALORIC INTAKE AND ANTICANCER AGENTS FOR THE TREATMENT OF CANCER” (IFOM FONDAZIONE ISTITUTO FIRC DI ONCOLOGIA MOLECOLARE, priority 2021, published 2022).

Each structure is given as a SMILES string.

Consider `O=CC[C@@H](O)[C@H](O)[C@H](O)CO` [2DG, 2-Deoxy-D-Glucose], for which the “number of ex vivo mammospheres (sphere formation)” value (from here on “number of ex vivo mammospheres”) in the assay with SUM159 tumour masses (setting [3]) is listed as “decreasing the number of mammospheres derived by tumor masses, even after a multiple serial propagation”; in the assay on SUM159 tumour masses (setting [4]), “did not have any effect under AL conditions”. For the same compound, the “time tumor formation was prevented” value in assay [1] (donor mice 2DG + FMD, 1,000 cells dilution level) is on record as “more than 150 days”. Moreover, in assay [1] (donor mice treated with 2DG + FMD), the “mouse survival in the limiting dilution assay” value is “potentiated the effect of FMD in increasing mouse survival compared to 2DG and FMD alone”. The tumor progression result in the assay on 4T1-luc cells is “potentiated the effect of FMD both in delaying tumor progression”. Moreover, the “CSCs (CD44 and CD24 expression)” value in assay [2] is recorded as “reducing CSCs”. For the same compound, the “tumor progression / anti-tumor activity” value with SUM159 xenografts is reported as “potentiated the effect of FMD both in delaying tumor progression”.
As for `Nc1ncnc2c1nc(Br)n2[C@@H]1O[C@@H]2COP(=O)(O)O[C@H]2[C@H]1O` [8-Br-cAMP, 8-Bromoadenosine 3′,5′-cyclic mono-phosphate], the “in vitro sphere formation” value in the assay with 4T1 cells was “reversed fasting/STS-dependent spheres reduction”.
For `O=C(Oc1cccc(F)c1OC(=O)c1cccc(O)c1)c1cccc(O)c1` [WZB117], the “number of ex vivo mammospheres” value in the assay with SUM159 tumour masses (setting [4]) was “mimicked the effect of FMD on reducing the number of spheres formation”. Besides, in the assay on SUM159 xenografts, the “tumor progression / anti-tumor activity” value was “did not potentiate the anti-tumor activity of FMD”.
On to `OC[C@H]1OC(O)[C@H](O)[C@@H](O)[C@@H]1O` (stereo partly drawn) [glucose], for which the “number of ex vivo mammospheres” value with SUM159 tumour masses (setting [3]) was “completely rescued the FMD-dependent reduction of mammospheres”. Further, the “in vitro sphere formation” value with 4T1 cells is reported as “reversed the STS effect on 4T1 sphere formation”. For the same compound, in the assay with SUM159 xenografts, the “tumor progression / anti-tumor activity” value is “partially reversed the FMD effects on tumor progression”.
As to `CN(C)C(=N)N=C(N)N` [metformin], the “number of ex vivo mammospheres” value in the assay on SUM159 tumour masses (setting [4]) was “reduced tumor growth and sphere formation”. For the same compound, the “tumor progression / anti-tumor activity” value in the assay on SUM159 xenografts is reported as “did not show any additive or synergistic antitumor effect when combined with the FMD”.
